Patent US9000044B2, “Substituted naphthylacetic acids” (Hoffmann-La Roche Inc., priority 2012, dated 2015)

These compounds were tested against human CRTH2 (Homo sapiens (Human), UniProt Q9Y5Y4) (assay: Calcium Flux Assay Using Fluorometric Imaging Plate Reader (FLIPR)). Conditions: CHO-K1 cells with G-alpha 16 and human CRTH2; inhibition of DK-PGD2 ligand-induced Ca2+ flux.
Format: cell-based
Description: Calcium Flux Assay Using Fluorometric Imaging Plate Reader (FLIPR)
Cell Culture Conditions: CHO-K1 cells previously transfected with G-alpha 16 were subsequently transfected with the human CRTH2 receptor and the neomycin resistance gene. Following selection in 800 μg/mL G418 (geneticin), individual clones were assayed for their receptor expression based on staining with an anti human CRTH2 IgG, followed by assaying for their response to 13,14-dihydro-15-keto Prostaglandin D2 (DK-PDG2) (ligand) in the Ca^2+ Flux assay. Positive clones were then cloned by limiting dilution cloning. The transfected cells were cultured in Ham's F-12 medium supplemented with 10% fetal bovine serum, 2 mM glutamine, 100 U/mL penicillin/100 μg/mL streptomycin, 200 μg/mL hygromycin B, and 800 μg/mL G418 (geneticin). Cells were harvested with trypsin-EDTA (trypsin-ethylenediaminetetraacetic acid) and counted using ViaCount® reagent (from Guava Technologies, Inc. which contains two DNA-binding dyes that enable the reagent user to distinguish between viable and non-viable cells). The cell suspension volume was adjusted to 2.5×10^5 cells/mL with complete growth media. Aliquots of 50 μL were dispensed into BD Falcon™ 384 well black/clear microplates (from BD Biosciences, a division of Becton, Dickinson and Company) and the microplates were placed in a 37° C. CO2 incubator overnight. The following day, the microplates were used in the assay.
Loading Buffer containing dye (from the FLIPR® Calcium 3 Assay Kit from Molecular Devices, a division of MDS Analytical Technologies and MDS Inc.) was prepared by dissolving the contents of one bottle into 200 mL Hank's Balanced Salt Solution containing 20 mM HEPES (4-(2-hydroxyethyl)-1-piperazineethanesulfonic acid) and 2.5 mM probenecid. Growth media was removed from the cell plates and 25 μL of Hank's Balanced Salt Solution (HBSS) containing 20 mM HEPES, 0.05% BSA and 2.5 mM probenecid was added to each well followed by 25 μL of diluted dye using a Multidrop dispenser. The plates were then incubated for 1 hour at 37° C.
During the incubation, test compound plates were prepared by adding 90 μL of HBSS/20 mM HEPES/0.005% BSA buffer to the 2 μL of serial diluted compounds. To prepare serial diluted compounds, 20 mM stocks of compounds were dissolved in 100% DMSO. The compound dilution plate was set up as follows: well #1 received 5 μL of compound plus 10 μL of DMSO. Wells 2-10 received 10 μL of DMSO. 5 μL was mixed and transferred from well #1 into well #2. 1:3 serial dilutions were continued out 10 steps. 2 μL of diluted compound was transferred into duplicate wells of a 384 well “assay plate” and then 90 μL of buffer was added.
After incubation, both the cell and “assay plate” plates were brought to the fluorometric imaging plate reader (FLIPR®) and 20 μL of the diluted compounds were transferred to the cell plates by the FLIPR®. Plates were then incubated for 1 hour at room temperature. […] During the assay, fluorescence readings were taken simultaneously from all 384 wells of the cell plate every 1.5 seconds. Five readings were taken to establish a stable baseline, then 20 μL of sample was rapidly (30 μL/sec) and simultaneously added to each well of the cell plate. The fluorescence was continuously monitored before, during and after sample addition for a total elapsed time of 100 seconds. Responses (increase in peak fluorescence) in each well following agonist addition were determined. The initial fluorescence reading from each well, prior to ligand stimulation, was used as a zero baseline value for the data from that well. The responses were expressed as % inhibition of the buffer control.

Chain of human CRTH2 (Q9Y5Y4 whole entry): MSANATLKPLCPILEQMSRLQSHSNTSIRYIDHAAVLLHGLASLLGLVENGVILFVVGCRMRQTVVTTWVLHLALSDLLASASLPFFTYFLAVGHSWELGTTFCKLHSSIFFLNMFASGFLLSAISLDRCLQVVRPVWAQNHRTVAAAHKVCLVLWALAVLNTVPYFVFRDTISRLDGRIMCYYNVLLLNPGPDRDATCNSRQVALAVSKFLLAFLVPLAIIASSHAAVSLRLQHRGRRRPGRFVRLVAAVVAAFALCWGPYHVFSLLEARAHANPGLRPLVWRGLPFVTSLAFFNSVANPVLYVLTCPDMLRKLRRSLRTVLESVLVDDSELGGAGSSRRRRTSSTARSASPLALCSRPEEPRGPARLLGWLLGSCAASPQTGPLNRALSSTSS

| SMILES | IC50 |
| --- | --- |
| Cc1c(CC(=O)O)cc2ccc(F)cc2c1-c1ccc(S(=O)(=O)c2ccccc2Cl)cc1 [Example 2, {4-[4-(2-Chloro-benzenesulfonyl)-phenyl]-6-fluoro-3-methyl-naphthalen-2-yl}-acetic acid] | 0.7 nM |
| Cc1c(CC(=O)O)cc2ccc(F)cc2c1-c1ccc(S(=O)(=O)c2cccc(Cl)c2)cc1 [Example 3, {4-[4-(3-Chloro-benzenesulfonyl)-phenyl]-6-fluoro-3-methyl-naphthalen-2-yl}-acetic acid] | 3.9 nM |
| Cc1c(CC(=O)O)cc2ccc(F)cc2c1-c1ccc(S(=O)(=O)c2ccc(Cl)cc2)cc1 [Example 4, {4-[4-(4-Chloro-benzenesulfonyl)-phenyl]-6-fluoro-3-methyl-naphthalen-2-yl}-acetic acid] | 3.2 nM |
| Cc1c(CC(=O)O)cc2ccc(F)cc2c1-c1ccc(S(=O)(=O)c2ccccc2C(F)(F)F)cc1 [Example 5, {6-Fluoro-3-methyl-4-[4-(2-trifluoromethyl-benzenesulfonyl)-phenyl]-naphthalen-2-yl}-acetic acid] | 1.3 nM |
| Cc1c(CC(=O)O)cc2ccc(F)cc2c1-c1ccc(S(=O)(=O)c2ccccc2OC(F)(F)F)cc1 [Example 6, {6-Fluoro-3-methyl-4-[4-(2-trifluoromethoxy-benzenesulfonyl)-phenyl]-naphthalen-2-yl}-acetic acid] | 1 nM |
| Cc1c(CC(=O)O)cc2ccc(F)cc2c1-c1ccc(S(=O)(=O)c2ccc(OC(F)(F)F)cc2)cc1 [Example 7, {6-Fluoro-3-methyl-4-[4-(4-trifluoromethoxy-benzenesulfonyl)-phenyl]-naphthalen-2-yl}-acetic acid] | 15.8 nM |
| Cc1c(CC(=O)O)cc2ccc(F)cc2c1-c1ccc(S(=O)(=O)c2ccc(Cl)cc2Cl)cc1 [Example 8, {4-[4-(2,4-Dichloro-benzenesulfonyl)-phenyl]-6-fluoro-3-methyl-naphthalen-2-yl}-acetic acid] | 9.1 nM |
| Cc1c(CC(=O)O)cc2ccc(F)cc2c1-c1ccc(S(=O)(=O)c2cc(Cl)ccc2Cl)cc1 [Example 9, {4-[4-(2,5-Dichloro-benzenesulfonyl)-phenyl]-6-fluoro-3-methyl-naphthalen-2-yl}-acetic acid] | 3.7 nM |
| Cc1c(CC(=O)O)cc2ccc(F)cc2c1-c1ccc(S(=O)(=O)c2ccc(F)cc2F)cc1 [Example 10, {4-[4-(2,4-Difluoro-benzenesulfonyl)-phenyl]-6-fluoro-3-methyl-naphthalen-2-yl}-acetic acid] | 1.2 nM |
| Cc1c(CC(=O)O)cc2ccc(F)cc2c1-c1ccc(S(=O)(=O)c2c(F)cccc2F)cc1 [Example 11, {4-[4-(2,6-Difluoro-benzenesulfonyl)-phenyl]-6-fluoro-3-methyl-naphthalen-2-yl}-acetic acid] | 1.2 nM |
| Cc1c(CC(=O)O)cc2ccc(F)cc2c1-c1ccc(S(=O)(=O)c2cc(C(F)(F)F)cc(C(F)(F)F)c2)cc1 [Example 12, {4-[4-(3,5-Bis-trifluoromethyl-benzenesulfonyl)-phenyl]-6-fluoro-3-methyl-naphthalen-2-yl}-acetic acid] | 14 nM |
| Cc1c(CC(=O)O)cc2ccc(F)cc2c1-c1ccc(S(=O)(=O)c2cc(Cl)cc(Cl)c2)cc1 [Example 13, {4-[4-(3,5-Dichloro-benzenesulfonyl)-phenyl]-6-fluoro-3-methyl-naphthalen-2-yl}-acetic acid] | 5.4 nM |
| Cc1c(CC(=O)O)cc2ccc(F)cc2c1-c1ccc(S(=O)(=O)c2cc(F)cc(F)c2)cc1 [Example 14, {4-[4-(3,5-Difluoro-benzenesulfonyl)-phenyl]-6-fluoro-3-methyl-naphthalen-2-yl}-acetic acid] | 1.6 nM |
| Cc1c(CC(=O)O)cc2ccc(Cl)cc2c1-c1ccc(S(=O)(=O)c2ccccc2Cl)cc1 [Example 15, {6-Chloro-4-[4-(2-chloro-benzenesulfonyl)-phenyl]-3-methyl-naphthalen-2-yl}-acetic acid] | 9.2 nM |
| Cc1c(CC(=O)O)cc2ccc(Cl)cc2c1-c1ccc(S(=O)(=O)c2cccc(Cl)c2)cc1 [Example 16] | 8.1 nM |
| Cc1c(CC(=O)O)cc2ccc(Cl)cc2c1-c1ccc(S(=O)(=O)c2ccc(Cl)cc2)cc1 [Example 17, {6-Chloro-4-[4-(4-chloro-benzenesulfonyl)-phenyl]-3-methyl-naphthalen-2-yl}-acetic acid] | 7 nM |
| Cc1c(CC(=O)O)cc2ccc(Cl)cc2c1-c1ccc(S(=O)(=O)c2ccccc2C(F)(F)F)cc1 [Example 18, {6-Chloro-3-methyl-4-[4-(2-trifluoromethyl-benzenesulfonyl)-phenyl]-naphthalen-2-yl}-acetic acid] | 2.3 nM |
| Cc1c(CC(=O)O)cc2ccc(Cl)cc2c1-c1ccc(S(=O)(=O)c2ccccc2OC(F)(F)F)cc1 [Example 19, {6-Chloro-3-methyl-4-[4-(2-trifluoromethoxy-benzenesulfonyl)-phenyl]-naphthalen-2-yl}-acetic acid] | 19.7 nM |
| Cc1c(CC(=O)O)cc2ccc(Cl)cc2c1-c1ccc(S(=O)(=O)c2ccc(OC(F)(F)F)cc2)cc1 [Example 20, {6-Chloro-3-methyl-4-[4-(4-trifluoromethoxy-benzenesulfonyl)-phenyl]-naphthalen-2-yl}-acetic acid] | 12.9 nM |
| Cc1c(CC(=O)O)cc2ccc(Cl)cc2c1-c1ccc(S(=O)(=O)c2cc(Cl)ccc2Cl)cc1 [Example 22, {6-Chloro-4-[4-(2,5-dichloro-benzenesulfonyl)-phenyl]-3-methyl-naphthalen-2-yl}-acetic acid] | 4.4 nM |
| Cc1c(CC(=O)O)cc2ccc(Cl)cc2c1-c1ccc(S(=O)(=O)c2ccc(F)cc2F)cc1 [Example 23, {6-Chloro-4-[4-(2,4-difluoro-benzenesulfonyl)-phenyl]-3-methyl-naphthalen-2-yl}-acetic acid] | 2.3 nM |
| Cc1c(CC(=O)O)cc2ccc(Cl)cc2c1-c1ccc(S(=O)(=O)c2c(F)cccc2F)cc1 [Example 24, {6-Chloro-4-[4-(2,6-difluoro-benzenesulfonyl)-phenyl]-3-methyl-naphthalen-2-yl}-acetic acid] | 312 nM |
| Cc1c(CC(=O)O)cc2ccc(Cl)cc2c1-c1ccc(S(=O)(=O)c2cc(C(F)(F)F)cc(C(F)(F)F)c2)cc1 [Example 25, {4-[4-(3,5-Bis-trifluoromethyl-benzenesulfonyl)-phenyl]-6-chloro-3-methyl-naphthalen-2-yl}-acetic acid] | 44.7 nM |
| Cc1c(CC(=O)O)cc2ccc(Cl)cc2c1-c1ccc(S(=O)(=O)c2cc(Cl)cc(Cl)c2)cc1 [Example 26, {6-Chloro-4-[4-(3,5-dichloro-benzenesulfonyl)-phenyl]-3-methyl-naphthalen-2-yl}-acetic acid] | 22.1 nM |
| Cc1c(CC(=O)O)cc2ccc(Cl)cc2c1-c1ccc(S(=O)(=O)c2cc(F)cc(F)c2)cc1 [Example 27, {6-Chloro-4-[4-(3,5-difluoro-benzenesulfonyl)-phenyl]-3-methyl-naphthalen-2-yl}-acetic acid] | 0.7 nM |
| Cc1c(CC(=O)O)cc2ccc(Cl)cc2c1-c1ccc(S(=O)(=O)Nc2ccc(F)cc2)cc1 [Example 28, {6-Chloro-4-[4-(4-fluoro-phenylsulfamoyl)-phenyl]-3-methyl-naphthalen-2-yl}-acetic acid] | 1.1 nM |
| Cc1ccc(NS(=O)(=O)c2ccc(-c3c(C)c(CC(=O)O)cc4ccc(Cl)cc34)cc2)cc1 [Example 29, [6-Chloro-3-methyl-4-(4-p-tolylsulfamoyl-phenyl)-naphthalen-2-yl]-acetic acid] | 2.7 nM |
| Cc1c(CC(=O)O)cc2ccc(Cl)cc2c1-c1ccc(S(=O)(=O)Nc2ccc(OC(F)(F)F)cc2)cc1 [Example 30, {6-Chloro-3-methyl-4-[4-(4-trifluoromethoxy-phenylsulfamoyl)-phenyl]-naphthalen-2-yl}-acetic acid] | 34.3 nM |
